Here are results for 48 compounds from patent US10532986B2, “Cyclic compound acting as PDE4 inhibitor” (MEDSHINE DISCOVERY INC., priority 2016, dated 2020).

Molecules are shown by their SMILES. pIC50: −log10 of the molar value.

T1 sequence (Q07343 305-736 limits assumed): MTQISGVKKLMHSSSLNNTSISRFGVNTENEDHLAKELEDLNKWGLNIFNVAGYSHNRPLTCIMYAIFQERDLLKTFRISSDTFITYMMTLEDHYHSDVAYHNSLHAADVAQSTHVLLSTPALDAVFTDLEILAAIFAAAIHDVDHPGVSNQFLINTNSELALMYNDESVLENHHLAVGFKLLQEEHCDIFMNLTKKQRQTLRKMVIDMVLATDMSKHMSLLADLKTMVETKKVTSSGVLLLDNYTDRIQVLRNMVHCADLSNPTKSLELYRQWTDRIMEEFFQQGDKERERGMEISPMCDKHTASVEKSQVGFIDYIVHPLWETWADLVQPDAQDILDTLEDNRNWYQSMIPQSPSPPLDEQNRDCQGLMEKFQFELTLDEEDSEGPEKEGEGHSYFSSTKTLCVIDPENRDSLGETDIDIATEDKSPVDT

The experiment has as its target T1, Recombinant human PDE4B (Homo sapiens, UniProt Q07343).
T1 construct: amino acid 305-end; GST (N); made in house; host or cells: Sf9 insect cells (baculovirus)
Kind of experiment: Inhibitory activity of the compounds against PDE 4B (fluorescence polarization, Transcreener AMP2/GMP2). In kind it is biochemical. The note with it: recombinant human PDE4B (aa 305-end, GST tag); 1 μM cAMP; 1 hour at room temperature. Here is the method:
Inhibitory activity of the compounds against PDE 4B
The assay is based on the fluorescence polarization measuring AMP/GMP production as a result of the enzyme activity by displacement of Tracer binding to the AMP/GMP antibody.
10 mM Tris-HCl (pH 7.5), 5 mM MgCl2, 0.01% Brij 35, 1 mM DTT and 1% DMSO.
Recombinant human PDE4B (Gene accession number: NM_002600; amino acid 305-end) was expressed by baculovirus in Sf9 insect cells using an N-terminal GST tag. MW=78 kDa.
Transcreener® AMP^2/GMP^2 antibody and AMP^2/GMP^2 AlexaFluor 633 tracer
i) Recombinant human PDE4B and the enzyme substrate (1 μM cAMP) were dissolved in the newly-prepared buffer solution, respectively.
ii) The PDE4B buffer solution defined as above was transferred into the reaction wells.
iii) The compound which was dissolved in 100% DMSO was added to the reaction wells of the PDE4B buffer solution by Acoustic technology (Echo550; nanoliter range) and incubated at room temperature for 10 minutes.
iv) The enzymatic buffer solution was then added to the reaction wells defined as above to initiate the reaction.
v) The reaction was incubated at room temperature for 1 hour.
vi) The reaction was terminated by adding detecting mixture (Transcreener® AMP^2/GMP^2 antibody and AMP^2/GMP^2 AlexaFluor 633 tracer) and incubated for 90 minutes with gentle mixing. The measurement range of fluorescence polarization is Ex/Em=620/688.
The fluorescence polarization signal was converted into nM based on the AMP/GMP standard curve and the percent enzyme activity relative to DMSO calculated by Excel. GraphPad Prism was used to plot the curves (Drawing Medicine Icon)
Take `CCOc1cc([C@@H](CS(C)(=O)=O)n2c(=O)n(CC(F)F)c3cc(C(F)(F)F)ccc32)ccc1OC` [WX051]: the pIC50 is 7.57. On to `CCOc1cc([C@@H](CS(C)(=O)=O)n2c(=O)n(CC(F)(F)F)c3cc(C(F)(F)F)ccc32)ccc1OC` [WX052], for which the pIC50 was 7.86. As for `CCOc1cc([C@@H](CS(C)(=O)=O)n2c(=O)n(C)c3cc(C(F)(F)F)ccc32)ccc1OC` [WX053], the figure is 7.58; as for `CCOc1cc([C@@H](CS(C)(=O)=O)n2c(=O)n(CC)c3cc(C(F)(F)F)ccc32)ccc1OC` [WX054], 7.88. The same measure for `CCOc1cc([C@@H](CS(C)(=O)=O)n2c(=O)n(CC#N)c3cc(C(F)(F)F)ccc32)ccc1OC` [WX055]: 7.67; for `CCOc1cc([C@@H](CS(C)(=O)=O)n2c(=O)n(CCO)c3cc(C(F)(F)F)ccc32)ccc1OC` [WX056]: 8.37; for `CCOc1cc([C@@H](CS(C)(=O)=O)n2c(=O)n(C)c3cc(F)cc(F)c32)ccc1OC` [WX057]: 7.00. `CCOc1cc([C@@H](CS(C)(=O)=O)n2c(=O)n(CC#N)c3cc(F)cc(F)c32)ccc1OC` [WX058]: the pIC50 is 8.07. As for `CCOc1cc([C@@H](CS(C)(=O)=O)n2c(=O)n(CCO)c3cc(F)cc(F)c32)ccc1OC` [WX059], the figure is 7.17; as for `CCOc1cc([C@@H](CS(C)(=O)=O)n2c(=O)n(Cc3ccccc3F)c3cc(C(F)(F)F)cc(F)c32)ccc1OC` [WX060], 7.46; as for `CCOc1cc([C@@H](CS(C)(=O)=O)n2c(=O)n(CC(F)F)c3c(Cl)cccc32)ccc1OC` [WX061], 7.41.

As to `CCOc1cc([C@@H](CS(C)(=O)=O)n2c(=O)n(CC(F)(F)F)c3c(Cl)cccc32)ccc1OC` [WX062], the pIC50 was 7.26. As for `CCOc1cc(C(CS(C)(=O)=O)n2c(=O)n(CCS(C)(=O)=O)c3cc(Br)ccc32)ccc1OC` (stereo not drawn) [WX063], the figure is 7.68. As for `CCOc1cc([C@@H](CS(C)(=O)=O)n2c(=O)n(Cc3ccccc3F)c3cc(Br)ccc32)ccc1OC` [WX064], the figure is 9.04; as for `CCOc1cc([C@@H](CS(C)(=O)=O)n2c(=O)n(Cc3cccc(F)c3)c3cc(Br)ccc32)ccc1OC` [WX065], 8.84.

Regarding `CCOc1cc([C@@H](CS(C)(=O)=O)n2c(=O)n(Cc3ccc(F)cc3)c3cc(Br)ccc32)ccc1OC` [WX066], the pIC50 was 8.81. The same measure for `CCOc1cc([C@@H](CS(C)(=O)=O)n2c(=O)n(Cc3ccccc3F)c3ccccc32)ccc1OC` [WX067]: 8.00; for `CCOc1cc([C@@H](CS(C)(=O)=O)n2c(=O)n(C)c3cc(-c4ccccc4F)ccc32)ccc1OC` [WX068]: 9.15; for `CCOc1cc([C@@H](CS(C)(=O)=O)n2c(=O)n(CC)c3cc(-c4ccccc4F)ccc32)ccc1OC` [WX069]: 9.32.

`CCOc1cc([C@@H](CS(C)(=O)=O)n2c(=O)n(C(C)C)c3cc(-c4ccccc4F)ccc32)ccc1OC` [WX070]: the pIC50 is 8.90. `CCOc1cc([C@@H](CS(C)(=O)=O)n2c(=O)n(CC#N)c3cc(-c4ccccc4F)ccc32)ccc1OC` [WX071]: the pIC50 is over 9.30.

As for `CCOC(=O)c1ccc2c(c1)n(CC(F)F)c(=O)n2[C@H](CS(C)(=O)=O)c1ccc(OC)c(OCC)c1` [WX072], the negative-log IC50 (pIC50) was 7.83. As for `CCOC(=O)c1ccc2c(c1)n(CC(F)(F)F)c(=O)n2[C@H](CS(C)(=O)=O)c1ccc(OC)c(OCC)c1` [WX073], the figure is 7.50; as for `CCOC(=O)c1ccc2c(c1)n(C)c(=O)n2[C@H](CS(C)(=O)=O)c1ccc(OC)c(OCC)c1` [WX074], 7.99; as for `CCOc1cc(C(CS(C)(=O)=O)n2c(=O)[nH]c3cc(-c4ccccc4F)ccc32)ccc1OC(F)F` (stereo not drawn) [WX075], 9.17. As for `COc1ccc(C(CS(C)(=O)=O)n2c(=O)[nH]c3cc(-c4ccccc4F)ccc32)cc1` (stereo not drawn) [WX076], the figure is 7.66; as for `CCOc1cc(C(CS(C)(=O)=O)n2c(=O)oc3cc(Br)ccc32)ccc1OC` (stereo not drawn) [WX077], 7.33. The same measure for `CCOc1cc([C@@H](CS(C)(=O)=O)n2c(=O)[nH]c3c(-c4cnn(C)c4)cccc32)ccc1OC` [WX078]: 9.09. Consider `CCOc1cc([C@@H](CS(C)(=O)=O)n2c(=O)[nH]c3c(C(C)C)cccc32)ccc1OC` [WX079], for which the pIC50 was 8.60.

In the case of `CCOc1cc([C@@H](CS(C)(=O)=O)n2c(=O)[nH]c3c(C4=CCOCC4)cccc32)ccc1OC` [WX080], the pIC50 is 8.99. As for `CCOc1cc([C@@H](CS(C)(=O)=O)n2c(=O)[nH]c3c(C4CCOCC4)cccc32)ccc1OC` [WX081], the figure is 8.86; as for `CCOc1cc([C@@H](CS(C)(=O)=O)n2c(=O)[nH]c3c(-c4ccccc4OC)cccc32)ccc1OC` [WX082], over 9.30.

As for `CCOc1cc([C@@H](CS(C)(=O)=O)n2c(=O)[nH]c3c(-c4ccccc4C)cccc32)ccc1OC` [WX083], the pIC50 is over 9.30. The same measure for `CCOc1cc([C@@H](CS(C)(=O)=O)n2c(=O)[nH]c3c(-n4cccn4)cccc32)ccc1OC` [WX084]: 7.74; for `CCOc1cc([C@@H](CS(C)(=O)=O)n2c(=O)[nH]c3c(C(=O)N4CCCC4)cccc32)ccc1OC` [WX085]: 8.25. The same measure for `CCOc1cc([C@@H](CS(C)(=O)=O)n2c(=O)[nH]c3c(C(C)=O)cccc32)ccc1OC` [WX086]: 7.44; for `CCOc1cc([C@@H](CS(C)(=O)=O)n2c(=O)[nH]c3c(-c4ccccc4F)cccc32)ccc1OC` [WX087]: 8.89.

Turning to `CCOc1cc([C@@H](CS(C)(=O)=O)n2c(=O)[nH]c3c(-c4cccc(F)c4)cccc32)ccc1OC` [WX088], the pIC50 is 8.62. `CCOc1cc([C@@H](CS(C)(=O)=O)n2c(=O)[nH]c3c(-c4ccc(F)cc4)cccc32)ccc1OC` [WX089]: the pIC50 is 8.60. The same measure for `CCOc1cc([C@@H](CS(C)(=O)=O)n2c(=O)[nH]c3c(-c4ccccc4)cccc32)ccc1OC` [WX090]: 9.47.

As to `CCOc1cc([C@@H](CS(C)(=O)=O)n2c(=O)[nH]c3c(C4CC4)cccc32)ccc1OC` [WX091], the pIC50 is 8.40. As for `C=C(C)c1cccc2c1[nH]c(=O)n2[C@H](CS(C)(=O)=O)c1ccc(OC)c(OCC)c1` [WX092], the figure is 8.67. The same measure for `CCOc1cc([C@@H](CS(C)(=O)=O)n2c(=O)[nH]c3c(-c4cccs4)cccc32)ccc1OC` [WX093]: 8.90. The same measure for `CCOc1cc([C@@H](CS(C)(=O)=O)n2c(=O)[nH]c3c(Cc4ccccc4F)cccc32)ccc1OC` [WX094]: over 9.30. For the compound `CCOc1cc([C@@H](CS(C)(=O)=O)n2c(=O)[nH]c3c(-c4nccs4)cccc32)ccc1OC` [WX095], the pIC50 is 8.18.

Turning to `CCOc1cc([C@@H](CS(C)(=O)=O)n2c(=O)[nH]c3c(-c4ncc(F)cn4)cccc32)ccc1OC` [WX096], the pIC50 is 8.14. As for `CCOc1cc([C@@H](CS(C)(=O)=O)n2c(=O)[nH]c3c(-c4ncccc4F)cccc32)ccc1OC` [WX097], the figure is 8.30; as for `CCOC(=O)c1cccc2c1[nH]c(=O)n2[C@H](CS(C)(=O)=O)c1ccc(OC)c(OCC)c1` [WX098], 7.74.
